From US20250129067A1 (Progentos Therapeutics, Inc., priority 2021, published 2025)
Values joined by “and” are separate entries in the source; they are usually repeats but may differ in a detail not shown here. Equal entries are not always repeated. Where two headings read alike, the source gives them in different places.

Legend:
PDGFRα = PDGFRα (Homo sapiens (Human), UniProt P16234); assay: PDGFRα kinase enzyme assay (Promega PDGFRα Kinase Enzyme System, ADP-Glo); assay type: biochemical; conditions: 150 uM ATP
PDGFRα, sequence (P16234 24-1089): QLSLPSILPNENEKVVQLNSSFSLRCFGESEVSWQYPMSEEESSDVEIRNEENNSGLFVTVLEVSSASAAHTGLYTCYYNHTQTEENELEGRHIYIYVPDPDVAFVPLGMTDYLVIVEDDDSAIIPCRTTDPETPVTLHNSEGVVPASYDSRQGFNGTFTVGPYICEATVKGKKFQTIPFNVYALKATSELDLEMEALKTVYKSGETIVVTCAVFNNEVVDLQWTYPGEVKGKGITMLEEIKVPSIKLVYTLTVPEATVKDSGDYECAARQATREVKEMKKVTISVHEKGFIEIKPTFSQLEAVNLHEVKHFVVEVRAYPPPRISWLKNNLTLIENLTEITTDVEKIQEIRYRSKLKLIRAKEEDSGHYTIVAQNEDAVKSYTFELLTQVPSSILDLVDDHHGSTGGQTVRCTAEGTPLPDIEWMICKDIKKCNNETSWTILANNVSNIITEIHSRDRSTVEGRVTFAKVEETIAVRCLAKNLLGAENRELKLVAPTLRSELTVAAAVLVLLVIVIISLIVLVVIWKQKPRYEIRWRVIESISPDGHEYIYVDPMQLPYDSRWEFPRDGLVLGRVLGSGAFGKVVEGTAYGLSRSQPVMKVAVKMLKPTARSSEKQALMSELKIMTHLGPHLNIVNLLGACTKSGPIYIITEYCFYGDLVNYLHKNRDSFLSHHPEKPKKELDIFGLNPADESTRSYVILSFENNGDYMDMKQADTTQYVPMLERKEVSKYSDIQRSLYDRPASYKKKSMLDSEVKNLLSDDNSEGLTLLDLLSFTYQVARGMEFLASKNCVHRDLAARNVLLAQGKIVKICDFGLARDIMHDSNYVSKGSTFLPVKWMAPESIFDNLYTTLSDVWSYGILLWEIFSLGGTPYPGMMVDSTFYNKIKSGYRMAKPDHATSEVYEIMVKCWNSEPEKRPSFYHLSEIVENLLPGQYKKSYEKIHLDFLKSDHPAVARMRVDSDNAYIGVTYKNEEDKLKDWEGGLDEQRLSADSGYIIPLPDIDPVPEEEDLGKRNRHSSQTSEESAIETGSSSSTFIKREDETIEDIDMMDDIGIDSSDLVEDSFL
Outline: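 Read-out was ADP-Glo: remaining ATP depleted, ADP converted to luminescence and compared with a standard curve.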

[1] = system: Oligodendrocyte progenitor cells (OPCs); assay: In vitro OPC differentiation assay, GPR17 expression (immunocytochemistry); conditions: 72 hours, fold change over vehicle; for GPR17 Fold Induction (Over Vehicle; 3 μM): 3 μM (10× concentration, final 0.3 μM); for GPR17 Fold Induction (Over Vehicle; 5 μM): 5 μM (10× concentration, final 0.5 μM)
[2] = system: Oligodendrocyte progenitor cells (OPCs); assay: In vitro OPC differentiation assay, MBP expression (immunocytochemistry); conditions: 72 hours of treatment; fold change over vehicle
[3] = system: GPR17+ cells (newly differentiated oligodendrocytes); assay: In vivo OPC differentiation, GPR17+ cells in brain; conditions: for fold induction at 30 mg/kg / fold induction at 3 mg/kg / fold induction at 10 mg/kg / fold induction at 3.3 mg/kg: Mus musculus, po, 24 h, read-out: GPR17 Fold Induction (Over Vehicle)
Description: The ability of newly constructed compounds to drive OPC differentiation and myelination in vivo was tested. The ability of these compounds to drive OPC differentiation in vivo was tested using GPR17 as an indicator of newly differentiated oligodendrocytes.
Compounds were delivered PO or IP either QD or BID. Mice were dosed once, transiently, or continuously through the treatment period, which ranged from 1-3 days.
Mice were euthanized by isoflurane exposure and transcardially perfused with 14 mL of PBS (Sigma Cat #P4417-50TAB) followed by 22 mL of 3.2% paraformaldehyde in PBS. The brains were removed and postfixed for a minimum of 24 hours in 20 mL of 3.2% paraformaldehyde.
50-micron floating sections were cut using a Leica VT1200S vibratome. Every 24th section, extending through the antero-posterior extent of the brain, was stained. The selected brain sections were washed three times in PBS for 3 minutes each. The floating sections were incubated in the primary antibodies (see Table 10, below) diluted in blocking solution overnight at room temperature on a shaker. […] The next day, the sections were again washed three times in PBS for 3 minutes each and then incubated in the secondary antibodies diluted in blocking solution for 2 hours at room temperature on a shaker. After incubation, the sections were washed three times in PBS for 3 minutes each and mounted on a slide to be imaged using the Olympus Slide Scanner VS200.
The images were analyzed using a custom protocol developed using Visiopharm software to count GPR17+ cells. Cells were considered GPR17+ if they contained an Olig2 positive nucleus, and intense GPR 17 staining that filled their processes. Statistical analysis was done using one-way ANOVA with multiple comparison in GraphPad Prism software.

[4] = 11-point dose response, 10,000 nM to 0.169 nM, BLQ = below limit of quantitation, read-out: IC50 Values on PDGFRα Kinase Inhibition, IC50

Row | Structure (SMILES) | IC50 (PDGFRα; [4]) | GPR17 Fold Induction (Over Vehicle; 3 μM) [1] | GPR17 Fold Induction (Over Vehicle; 5 μM) [1] | MBP Fold Induction (Over vehicle) [2] | fold induction at 30 mg/kg [3] | fold induction at 3 mg/kg [3] | fold induction at 10 mg/kg [3] | GPR17 Fold Induction (Over Vehicle) ([3]; dose not assignable from Table 10, GPR17+ cells in brain, mice) | fold induction at 3.3 mg/kg [3] | IC50 Values on PDGFRα Kinase Inhibition, IC50 (nM) (PDGFRα; 11-point dose response, 10,000 nM to 0.169 nM, BLQ = below limit of quantitation) | IC50 (PDGFRα; 20 ng purified PDGFRα, Poly (Glu4Tyr1) substrate, two hours, 11-point dose response, read-out: IC50 Values on PDGFRα Kinase Inhibition)
1 | Cn1cc(-c2ccn3c(N4CCN(c5ncc(Cc6ccccc6)cn5)CC4)cnc3c2)cn1 [Compound 23, 3-[4-(5-benzylpyrimidin-2-yl)piperazin-1-yl]-7-(1-methyl-1H-pyrazol-4-yl)imidazo[1,2-a]pyridine] | 424 nM | 9.53 | 3.98 | 2.1 | 14.8 | – | – | – | – | – | –
2 | Cn1cc(-c2ccc3c(N4CCN(C(=O)OCc5cccc(C#N)c5)CC4)cnn3c2)cn1 [Compound 272, 3-cyanobenzyl 4-[6-(1-methyl-1H-pyrazol-4-yl)pyrazolo[1,5-a]pyridin-3-yl]piperazine-1-carboxylate] | 865 nM | 6.11 | – | 40.13 | – | 2.47 | 5.93 | – | – | – | –
3 | Cn1cc(-c2ccc3c(N4CCN(C(=O)N5CCCCC5)CC4)cnn3c2)cn1 [Compound 163, (4-(6-(1-methyl-1H-pyrazol-4-yl)pyrazolo[1,5-a]pyridin-3-yl)piperazin-1-yl)(piperidin-1-yl)methanone] | 350 nM | 5.84 | – | 48.00 | – | 0.95 | – | – | – | – | –
4 | C[C@@H](NC(=O)N1CCN(c2cnn3cc(-c4cnn(C)c4)ccc23)CC1)c1ccc(Cl)cc1 [Compound 274, N-[(1R)-1-(4-chlorophenyl)ethyl]-4-[6-(1-methyl-1H-pyrazol-4-yl)pyrazolo[1,5-a]pyridin-3-yl]piperazine-1-carboxamide] | 49 nM | 5.01 and 9.78 | – | 24.95 | – | 6.67 | – | – | – | – | –
5 | CC1CC(OC(=O)N2CCN(c3cnn4cc(-c5cnn(C)c5)ccc34)CC2)C1 (centres unmarked) [Compound 309, 3 methylcyclobutyl 4-[6-(1-methyl-1H-pyrazol-4-yl)pyrazolo[1,5-a]pyridin-3-yl]piperazine-1-carboxylate] | 824 nM | 6.67 | – | 5.13 | – | – | 1.2 | – | – | – | –
6 | C[C@@H](OC(=O)N1CCN(c2cnn3cc(-c4cnn(C)c4)ccc23)CC1)c1ccc(Cl)c(Cl)c1 [Compound 311, (1R)-1-(3,4-dichlorophenyl)ethyl 4-[6-(1-methyl-1H-pyrazol-4-yl)pyrazolo[1,5-a]pyridin-3-yl]piperazine-1-carboxylate] | 39.1 nM | 5.77 | – | 10.47 | – | 2.52 | – | – | – | – | –
7 | Cn1cc(-c2ccc3c(N4CCN(c5ncc(C(C)(O)c6ccc(F)cc6)cn5)CC4)cnn3c2)cn1 (centres unmarked) [Compound 46, 1-(4-fluorophenyl)-1-(2-{4-[6-(1-methyl-1H-pyrazol-4-yl)pyrazolo[1,5-a]pyridin-3-yl]piperazin-1-yl}pyrimidin-5-yl)ethanol] | 122 nM | 6.86 | – | 3.97 | – | – | – | 11.15 fold | – | – | –
8 | C[C@H](OC(=O)N1CCN(c2cnn3cc(-c4cnn(C)c4)ccc23)CC1)c1ccc(Cl)cc1 [Compound 271, (1S)-1-(4-chlorophenyl)ethyl 4-[6-(1-methyl-1H-pyrazol-4-yl)pyrazolo[1,5-a]pyridin-3-yl]piperazine-1-carboxylate] | 1490 nM | 6.67 | – | 2.21 | – | 0.83 | – | – | – | – | –
9 | Cn1cc(-c2ccc3c(N4CCN(c5ncc(C(O)c6ccccn6)cn5)CC4)cnn3c2)cn1 (centres unmarked) [Compound 59, (2-{4-[6-(1-methyl-1H-pyrazol-4-yl)pyrazolo[1,5-a]pyridin-3-yl]piperazin-1-yl}pyrimidin-5-yl) (pyridin-2-yl)methanol] | 168 nM | 5.49 | – | 2.56 | – | 10.6 | – | – | – | – | –
10 | Cn1cc(-c2ccc3c(N4CCN(c5ncc(Cc6ccc(F)cc6)cn5)CC4)cnn3c2)cn1 [Compound 66, 3-{4-[5-(4-fluorobenzyl)pyrimidin-2-yl]piperazin-1-yl}-6-(1-methyl-1H-pyrazol-4-yl)pyrazolo[1,5-a]pyridine] | 693 nM | 5.07 | – | 26.50 | – | 10.4 | – | – | – | – | –
11 | Cn1cc(-c2ccc3c(N4CCN(c5ncc(Cc6cccnc6)cn5)CC4)cnn3c2)cn1 [Compound 251, 6-(1-methyl-1H-pyrazol-4-yl)-3-{4-[5-(pyridin-3-ylmethyl)pyrimidin-2-yl]piperazin-1-yl}pyrazolo[1,5-a]pyridine] | 1160 nM | 4.97 | – | 9.20 | – | 1.22 | – | – | – | – | –
12 | Cn1cc(-c2ccc3c(N4CCN(c5ncc(C(O)CCc6ccccc6)cn5)CC4)cnn3c2)cn1 (centres unmarked) [Compound 175, 1-(2-(4-(6-(1-methyl-1H-pyrazol-4-yl)pyrazolo[1,5-a]pyridin-3-yl)piperazin-1-yl)pyrimidin-5-yl)-3-phenylpropan-1-ol] | 220 nM | 6.34 | – | 6.20 | – | 5.15 | – | – | – | – | –
13 | COc1ccc(Cc2cnc(N3CCN(c4cnn5cc(-c6cnn(C)c6)ccc45)CC3)nc2)cc1 [Compound 254, 3-(4-(5-(4-methoxybenzyl)pyrimidin-2-yl)piperazin-1-yl)-6-(1-methyl-1H-pyrazol-4-yl)pyrazolo[1,5-a]pyridine] | 267 nM | 6.77 | – | 4.04 | – | – | 10.7 | – | – | – | –
14 | Cn1cc(-c2ccc3c(N4CCN(C(=O)NCc5ccc(Cl)cc5)CC4)cnn3c2)cn1 [Compound 275, N-(4-chlorobenzyl)-4-[6-(1-methyl-1H-pyrazol-4-yl)pyrazolo[1,5-a]pyridin-3-yl]piperazine-1-carboxamide] | 67 nM | 6.70 | – | 2.71 | – | 5.31 | – | – | – | – | –
15 | Cn1cc(-c2ccc3c(N4CCN(C(=O)OCCc5ccccc5)CC4)cnn3c2)cn1 [Compound 30, 2-phenylethyl-4-[6-(1-methyl-1H-pyrazol-4-yl)pyrazolo[1,5-a]pyridin-3-yl]piperazine-1-carboxylate] | 998 nM | 6.05 | 3.25 | 1.78 | – | – | – | – | 9.91 | – | –
16 | CCC(CC)C(O)c1cnc(N2CCN(c3cnn4cc(-c5cnn(C)c5)ccc34)CC2)nc1 (centres unmarked) [Compound 177, 2-ethyl-1-(2-(4-(6-(1-methyl-1H-pyrazol-4-yl)pyrazolo[1,5-a]pyridin-3-yl)piperazin-1-yl)pyrimidin-5-yl)butan-1-ol] | 75.3 nM | 10.12 | – | 32.85 | – | 2.37 | – | – | – | – | –
17 | Cn1cc(-c2ccc3c(N4CCN(c5ccc(Cc6ccccc6)cn5)CC4)cnn3c2)cn1 [Compound 249, 3-[4-(5-benzylpyridin-2-yl)piperazin-1-yl]-6-(1-methyl-1H-pyrazol-4-yl)pyrazolo[1,5a]pyridine] | 1260 nM | 6.40 | – | 1.64 | 10.6 | – | – | – | – | – | –
18 | C[C@@H](OC(=O)N1CCN(c2cnn3cc(-c4cnn(C)c4)ccc23)CC1)c1cccc2ccccc12 [Compound 269, (1R)-1-(1-naphthyl)ethyl 4-[6-(1-methyl-1H-pyrazol-4-yl)pyrazolo[1,5-a]pyridin-3-yl]piperazine-1-carboxylate] | 138 nM | 5.70 | – | 13.54 | – | 0.91 | – | – | – | – | –
19 | Cn1cc(-c2ccc3c(N4CCN(C(=O)OCc5ccc(C#N)cc5)CC4)cnn3c2)cn1 [Compound 316, 4-cyanobenzyl 4-[6-(1-methyl-1H-pyrazol-4-yl)pyrazolo[1,5-a]pyridin-3-yl]piperazine-1-carboxylate] | 194 nM | 9.10 | – | 34.99 | – | 2.36 | – | – | – | – | –
20 | CC(OC(=O)N1CCN(c2cnn3cc(-c4cnn(C)c4)ccc23)CC1)c1ccc(Cl)cc1 (centres unmarked) [Compound 265, 1-(4-chlorophenyl)ethyl 4-(6-(1-methyl-1H-pyrazol-4-yl)pyrazolo[1,5-a]pyridin-3-yl)piperazine-1-carboxylate] | – | 7.72 | – | 20.78 | – | 7.92 | – | – | – | BLQ | –
21 | Cn1cc(-c2ccc3c(N4CCN(C(=O)OCC(C)(C)C)CC4)cnn3c2)cn1 [Compound 3, 2,2-dimethylpropyl 4-[6-(1-methyl-1H-pyrazol-4-yl)pyrazolo[1,5-a]pyridin-3-yl]piperazine-1-carboxylate] | 883 nM | 4.12 | 3.69 | 1.56 | – | – | – | – | 1.45 | – | < 1000 nM
